From patent EP0998477B1, “Alkyl-4-silylheterocyclic phenols and thiophenols as antioxidant agents” (priority 1997, dated 1998)
Like-named read-outs stand apart in the source and are kept apart here.

Experiments:
serum lipids [1] = assay: In vivo screening in rats: TBARS assay on serum (CuSO4-initiated oxidation); parameters: species or system Male Sprague-Dawley rats; settings: thiobarbituric acid reactive substances (nmoles MDA) in serum, percent of control; diet 0.3% for 4 days, N = 5 rats
Description: A typical experiment consists of 4-6 groups of rats (N = 5 per group) with 1 group being a control which receives no MDL compound and the other groups being treated with 0.3% MDL compound. Some of the compounds are either repeated at 0.3% or evaluated again at the lower dose of 0.1 %. House Male Sprague-Dawley rats, 50-100 g, (Harlan Laboratories, Indianapolis, IN) in groups of 5, feeding ad libitum water and Purina Rodent chow (#5002) with or without MDL compound as a dietary admixture for 4 days. Make dietary admixtures (0.3%) by mixing 1.2 grams of an MDL compound with 400 grams of Purina rodent chow (#5002). Mix the MDL compound with approximately 50 grams of food using a mortar and pestle. This is added to the remainder of the food and mixed for 3 hours on a rotary mixer. In the morning of day 5, anesthetize non-fasted rats with carbon dioxide, and collect blood by cardiac puncture. […] Deaths are recorded as mortality. […]
In this assay the oxidation of serum lipids is initiated with CuSO4, resulting in the formation of aldehydes, such as malondialdehyde (MDA). Upon incubation with thiobarbituric acid, the absorbance of the aldehydes can be detected at 530-540 nm. […] Measure absorbances at 540 nm using a Biotek model EL311 microplate reader. The nmoles of MDA produced are calculated from a standard curve of 0 to 10 nmoles of MDA prepared from malonaldehyde bis(dimethylacetal). […]

ICAM-1 = assay: Inhibition of cytokine-induced ICAM-1 expression in proliferating HUVEC (cell-surface ELISA); type: cell-based, human
Method: (§1) Plate proliferating human umbilical vein endothelial cells (HUVEC) or human aortic smooth muscle cells (HASMC) from Clonetics (San Diego, CA) onto 96-well plates in 100 µL medium per well at 20,000 cells per cm^2. Maintain the cultures in growth medium (EGM or SMGM2, Clonetics, San Diego, CA) for two days prior to addition of cytokines or drugs. Add cytokines plus or minus compounds for 20 to 24 hours prior to analysis for adhesion molecule levels. Add tumor necrosis factor (Genzyme, Cambridge, MA) to cultures at 500-1000 units/mL to stimulate adhesion molecule expression. Add interleukin-4 (GIBCO-BRL, Gaithersburg, MD) to cultures at 100-200 pg/mL to stimulate VCAM-1 expression. […] Remove the culture medium, and wash the monolayers twice with Hanks buffered saline solution (HBSS) at room temperature. Add the primary antibody (anti-human VCAM-1 from Upstate Biotechnology, Inc., Lake Placid, NY or anti-human ICAM-1 from Immunotech, Inc., Westbrook, ME) to each well (1 µg/mL in HBSS plus 5% newborn calf serum, GIBCO-BRL, Gaithersburg, MD) and incubate at 37°C for 1 hr. Wash the wells twice with HBSS, then add 100 µL of a 1/1000 dilution of goat anti-mouse IgG conjugated to horse radish peroxidase (BioRad, Hercules, CA) in HBSS plus 5% newborn calf serum to each well and incubated for 1 hr at 37°C. Wash the wells three times with HBSS, then add 100 µL of TMB substrate (BioRad, Hercules, CA) to each well. Stop the reaction after blue color develops by addition of 50 µL of 1 N H2SO4. Measure absorbance at 450 nm with a plate reader.
The IC50 value is defined as the drug concentration that inhibits the cytokine-induced adhesion molecule expression by 50%. Maximal values for adhesion molecule expression in cytokine-induced cultures was subtracted from the basal level of adhesion molecule expression (minus cytokines) in the cultures to detoermine the level of induction. Each drug concentration was tested in quadruplicate wells. […]

[2] = In vivo screening in rats: animal parameters (food, body weight, liver weight, mortality); parameters: species or system Male Sprague-Dawley rats; settings: diet 0.3% for 4 days, N = 5 rats; for mortality: deaths per group; for food: grams eaten per day per rat; for food / lw/bw / body wt.: percent of control; for lw/bw: liver weight/body weight; for body wt.: weight in grams
Description: (§2) A typical experiment consists of 4-6 groups of rats (N = 5 per group) with 1 group being a control which receives no MDL compound and the other groups being treated with 0.3% MDL compound. Some of the compounds are either repeated at 0.3% or evaluated again at the lower dose of 0.1 %. House Male Sprague-Dawley rats, 50-100 g, (Harlan Laboratories, Indianapolis, IN) in groups of 5, feeding ad libitum water and Purina Rodent chow (#5002) with or without MDL compound as a dietary admixture for 4 days. Make dietary admixtures (0.3%) by mixing 1.2 grams of an MDL compound with 400 grams of Purina rodent chow (#5002). Mix the MDL compound with approximately 50 grams of food using a mortar and pestle. This is added to the remainder of the food and mixed for 3 hours on a rotary mixer. In the morning of day 5, anesthetize non-fasted rats with carbon dioxide, and collect blood by cardiac puncture. Sacrifice rats by cervical dislocation. Record body weights and liver weights in grams. Record food consumption as grams • day^-1 • rat^-1. Deaths are recorded as mortality. Use aliquots of fresh serum for clinical chemistries, thiobarbituric acid reactive substances (TBARS) and conjugated diene measurements. Freeze aliquots of serum (∼ 0.5mL) and whole livers at -20°C for compound and metabolite concentration determination at a later time.

VCAM-1 = assay: Inhibition of cytokine-induced VCAM-1 expression in proliferating HUVEC (cell-surface ELISA); type: cell-based; settings: Homo sapiens, coincubated with tumor necrosis factor-alpha and compound for 20 hr, average of two runs
Method: as §1, with “Wash the wells three times with HBSS, then add 100 µL of TMB substrate (BioRad, Hercules, CA) to each well. Stop the reaction after blue color develops by addition of 50 µL of 1 N H2SO4.” left out, “reader. […]” for “reader.”

[3] = male, Sprague-Dawley, rat, in vivo
Description: as §2
Determine serum and liver concentrations of parent compound and the metabolites, bisphenol and diphenoquinone, by reverse phase HPLC using a Waters 990 Powerline system. Homegenize livers (1 gram samples) with 5.0mL PBS, pH 7.4, using a Polytron tissue homogenizer at setting 5 for 20-30 seconds. Extract serum or liver homogenates as follows: add 100µL of either serum or homogenate to 2.0mL diethyl ether: ethanol (3:1) while vortexing the tube. Cap the sample tubes and centrifuge for 10 min at 5°C at 3500 rpm in a Beckman GPKR centrifuge with a GH 3.7 rotor. Transfer the supematants to clean tubes and dry under N2. Reconstitute samples with 200µL of acetonitrile : hexane: 0.1 M ammonium acetate (90: 6.5 : 3.5, by vol.). Then, inject 100µL onto a Waters Deltapak C18-300 Å column, and elute with an 83% acetonitrile : 17% water mobile phase at a flow rate of 1.5mL/min. Record absorbances at the wavelengths of 240, 254, and 420nm. Calculate compound concentrations from known quantities of authentic parent compounds after correction for recovery. […]. Calculate concentrations as µg/mL of serum and µg/g of liver.

serum lipids [4] = assay: In vivo screening in rats: conjugated diene lag phase of pooled serum; parameters: species or system Male Sprague-Dawley rats; settings: mean of 2 determinations of pooled serum (N = 5), not normalized, Control = 61 min., diet 0.3% for 4 days
Description: A typical experiment consists of 4-6 groups of rats (N = 5 per group) with 1 group being a control which receives no MDL compound and the other groups being treated with 0.3% MDL compound. Some of the compounds are either repeated at 0.3% or evaluated again at the lower dose of 0.1 %. House Male Sprague-Dawley rats, 50-100 g, (Harlan Laboratories, Indianapolis, IN) in groups of 5, feeding ad libitum water and Purina Rodent chow (#5002) with or without MDL compound as a dietary admixture for 4 days. Make dietary admixtures (0.3%) by mixing 1.2 grams of an MDL compound with 400 grams of Purina rodent chow (#5002). Mix the MDL compound with approximately 50 grams of food using a mortar and pestle. This is added to the remainder of the food and mixed for 3 hours on a rotary mixer. In the morning of day 5, anesthetize non-fasted rats with carbon dioxide, and collect blood by cardiac puncture. Sacrifice rats by cervical dislocation. Record body weights and liver weights in grams. Record food consumption as grams • day^-1 • rat^-1. Deaths are recorded as mortality. […]
Conjugated diene lag phase is another indicator of the oxidation of lipids. […] Measure the absorbances of all cuvettes and set the instrument baseline to zero using the lowest absorbing sample. […] Record the absorbance of each cuvette at 2 min intervals for a period of 840 min. […]

[5] = In vivo screening in rats: serum clinical chemistries; parameters: species or system Male Sprague-Dawley rats; settings: percent of control, diet 0.3% for 4 days, N = 5 rats; for ALT: alanine aminotransferase in serum; for ALP: alkaline phosphatase in serum; for AST: aspartate aminotransferase in serum; for GLUC: glucose in serum; for CHOL: total cholesterol in serum; for TRIG: triglycerides in serum
Description: as §2
Allow blood to clot at room temperature for 30 minutes. Obtain serum after centrifugation for 10 min at 4°C at 3000 rpm in a Beckman J-6M/E centrifuge with a JS-4.2 rotor. Analyze fresh serum by a COBAS MIRA S autoanalyzer (Roche Diagnostics) using Roche diagnostic reagents for the following clinical chemistry measurements: alkaline phosphatase (ALP, kit # 44553), alanine transaminase (ALT, kit # 42375), aspartate aminotransferase (AST, kit # 42381), total cholesterol (CHOL, kit # 44334), triglyceride (TG, kit # 44120), and glucose (GLU, kit # 44558). Calculate ALP, ALT, and AST as units/L. Calculate cholesterol, triglycerides, and glucose as mg/dL.

CC(C)(C)c1cc(OC[Si](C)(C)c2ccco2)cc(C(C)(C)C)c1O [MDL 106,939, Phenol, 2,6-bis(1,1-dimethylethyl)-4-[(2-furanyldimethylsilyl)methoxy]-]
TBARS (serum lipids [1]): 64% | IC50 (ICAM-1; Homo sapiens, coincubated with tumor necrosis factor-alpha and compound for 20 hr, average of two runs, except MDL 107,695 where both values are shown, read-out: ICAM-1 IC50): 33 µM | mortality [2]: 0% | food [2]: 88% | lw/bw [2]: 130% | body wt. [2]: 92% | IC50 (VCAM-1): 13 µM | Liver Parent [3]: 97.7 µg/g liver | Serum Parent [3]: 3.3 µg/mL of serum | CONJ. DIENE (serum lipids [4]): 391 min | ALT [5]: 92% | ALP [5]: 123% | AST [5]: 106% | GLUC [5]: 83% | CHOL [5]: 120% | TRIG [5]: 108%

CC(C)(C)c1cc(OC[Si](C)(C)c2cccs2)cc(C(C)(C)C)c1O [MDL 107,965, Phenol, 2,6-bis(1,1-dimethylethyl)-4-[(dimethyl-2-thienylsilyl)methoxy]-]
TBARS (serum lipids [1]): 57% | IC50 (ICAM-1; Homo sapiens, 20 h, read-out: ICAM-1 IC50, HUVEC, coincubated with tumor necrosis factor-alpha and compound for 20 hr, average of two runs, except MDL 107,695 where both values are shown): 72 µM | IC50 (ICAM-1; read-out: ICAM-1 IC50, coincubated with tumor necrosis factor-alpha and compound for 20 hr, average of two runs, except MDL 107,695 where both values are shown): > 100 µM | mortality [2]: 0% | food [2]: 84% | lw/bw [2]: 118% | body wt. [2]: 84% | Liver Parent [3]: 82 µg/g liver | Serum Parent [3]: 12.6 µg/mL of serum | CONJ. DIENE (serum lipids [4]): 273 min | ALT [5]: 96% | ALP [5]: 137% | AST [5]: 89% | GLUC [5]: 86% | CHOL [5]: 121% | TRIG [5]: 90%
